These results are taken from ChEMBL document CHEMBL5465560, “Selectivity Literature for EUbOPEN Chemogenomic Library” (2024).

pIC50: −log10 of the molar value. Where only a bound is given, the exact number is not on record here.

Assay [1] addresses cAMP-dependent protein kinase catalytic subunit alpha (Homo sapiens, UniProt P17612). In words: Selectivity interaction (Upstate Kinase Profiler service (Millipore)) EUB0000056c PRKACA. The conditions noted are these: at 1 µM.
For assay [2], the target named is T1, MAP/microtubule affinity-regulating kinase 4 (Homo sapiens) (UniProt Q96L34).
T1 sequence (whole entry): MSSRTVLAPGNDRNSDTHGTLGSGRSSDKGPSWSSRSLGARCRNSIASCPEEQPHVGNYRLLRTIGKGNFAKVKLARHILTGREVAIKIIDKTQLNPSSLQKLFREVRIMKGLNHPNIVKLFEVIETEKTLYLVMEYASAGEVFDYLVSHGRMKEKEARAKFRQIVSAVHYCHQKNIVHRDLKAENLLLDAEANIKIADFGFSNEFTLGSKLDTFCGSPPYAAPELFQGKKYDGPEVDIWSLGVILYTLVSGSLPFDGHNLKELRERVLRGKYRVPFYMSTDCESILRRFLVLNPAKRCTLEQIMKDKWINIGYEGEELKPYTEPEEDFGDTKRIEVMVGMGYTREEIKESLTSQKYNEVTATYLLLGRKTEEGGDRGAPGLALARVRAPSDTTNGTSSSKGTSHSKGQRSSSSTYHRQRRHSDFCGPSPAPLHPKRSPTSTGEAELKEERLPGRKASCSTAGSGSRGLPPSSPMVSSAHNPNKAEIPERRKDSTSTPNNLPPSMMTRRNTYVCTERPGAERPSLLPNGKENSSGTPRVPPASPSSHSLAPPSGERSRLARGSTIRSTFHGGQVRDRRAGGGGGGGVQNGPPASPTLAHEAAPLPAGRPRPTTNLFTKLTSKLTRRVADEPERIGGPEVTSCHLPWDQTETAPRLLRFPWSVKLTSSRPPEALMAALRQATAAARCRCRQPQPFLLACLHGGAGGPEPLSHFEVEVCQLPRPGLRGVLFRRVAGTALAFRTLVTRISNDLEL
Briefly: Selectivity interaction (KinomeScan (DiscoverX)) EUB0001079a MARK4. The conditions noted are these: at 1 µM.

In assay [3] the target is MAP/microtubule affinity-regulating kinase 3 (Homo sapiens) (UniProt P27448). In words: Selectivity interaction (KinomeScan (DiscoverX)) EUB0001049a MARK3. The conditions noted are these: at 1 µM.
MAP/microtubule affinity-regulating kinase 3 (Homo sapiens), sequence (P27448 whole entry, looked up, canonical isoform): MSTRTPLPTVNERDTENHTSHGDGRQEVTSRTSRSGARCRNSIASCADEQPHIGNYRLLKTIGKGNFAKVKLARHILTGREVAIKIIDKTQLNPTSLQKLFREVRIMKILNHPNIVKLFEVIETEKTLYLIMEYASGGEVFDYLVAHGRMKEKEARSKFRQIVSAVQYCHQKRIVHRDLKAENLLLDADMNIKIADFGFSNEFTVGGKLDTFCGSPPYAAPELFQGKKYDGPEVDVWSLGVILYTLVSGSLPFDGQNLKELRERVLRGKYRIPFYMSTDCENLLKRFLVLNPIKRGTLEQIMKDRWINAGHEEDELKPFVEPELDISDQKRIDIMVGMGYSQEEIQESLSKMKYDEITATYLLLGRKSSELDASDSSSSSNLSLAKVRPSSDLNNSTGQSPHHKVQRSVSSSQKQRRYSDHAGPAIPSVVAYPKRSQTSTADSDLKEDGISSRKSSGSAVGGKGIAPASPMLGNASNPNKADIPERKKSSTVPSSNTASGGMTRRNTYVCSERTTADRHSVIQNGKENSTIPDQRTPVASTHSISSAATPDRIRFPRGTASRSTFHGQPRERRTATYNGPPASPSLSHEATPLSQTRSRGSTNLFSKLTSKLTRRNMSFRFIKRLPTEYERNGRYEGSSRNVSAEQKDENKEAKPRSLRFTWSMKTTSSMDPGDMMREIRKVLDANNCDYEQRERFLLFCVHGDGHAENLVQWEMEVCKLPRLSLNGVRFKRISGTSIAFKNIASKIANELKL
Assay [4] has as its target T2, Phosphorylase b kinase gamma catalytic chain, liver/testis isoform (Homo sapiens) (UniProt P15735).
T2 sequence (whole entry): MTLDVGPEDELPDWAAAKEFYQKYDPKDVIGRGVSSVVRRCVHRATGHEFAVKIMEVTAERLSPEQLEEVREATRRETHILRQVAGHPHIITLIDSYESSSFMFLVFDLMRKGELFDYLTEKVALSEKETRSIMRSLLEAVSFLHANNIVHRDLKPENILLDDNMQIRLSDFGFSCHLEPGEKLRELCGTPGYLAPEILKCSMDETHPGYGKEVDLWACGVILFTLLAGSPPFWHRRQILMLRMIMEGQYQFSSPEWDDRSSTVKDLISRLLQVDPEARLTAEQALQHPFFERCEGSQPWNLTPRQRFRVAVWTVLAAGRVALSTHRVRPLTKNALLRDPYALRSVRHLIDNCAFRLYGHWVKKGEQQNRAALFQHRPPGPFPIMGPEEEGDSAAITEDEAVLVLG
Briefly: Selectivity interaction (KinomeScan (DiscoverX)) EUB0001049a PHKG2. The conditions noted are these: at 1 µM.

The target in assay [5] is Receptor tyrosine-protein kinase erbB-2 (Homo sapiens, UniProt P04626). Briefly: Selectivity interaction (KinomeScan (DiscoverX)) EUB0000655a ERBB2. The conditions noted are these: at 10 µM.
Receptor tyrosine-protein kinase erbB-2, sequence (P04626 whole entry): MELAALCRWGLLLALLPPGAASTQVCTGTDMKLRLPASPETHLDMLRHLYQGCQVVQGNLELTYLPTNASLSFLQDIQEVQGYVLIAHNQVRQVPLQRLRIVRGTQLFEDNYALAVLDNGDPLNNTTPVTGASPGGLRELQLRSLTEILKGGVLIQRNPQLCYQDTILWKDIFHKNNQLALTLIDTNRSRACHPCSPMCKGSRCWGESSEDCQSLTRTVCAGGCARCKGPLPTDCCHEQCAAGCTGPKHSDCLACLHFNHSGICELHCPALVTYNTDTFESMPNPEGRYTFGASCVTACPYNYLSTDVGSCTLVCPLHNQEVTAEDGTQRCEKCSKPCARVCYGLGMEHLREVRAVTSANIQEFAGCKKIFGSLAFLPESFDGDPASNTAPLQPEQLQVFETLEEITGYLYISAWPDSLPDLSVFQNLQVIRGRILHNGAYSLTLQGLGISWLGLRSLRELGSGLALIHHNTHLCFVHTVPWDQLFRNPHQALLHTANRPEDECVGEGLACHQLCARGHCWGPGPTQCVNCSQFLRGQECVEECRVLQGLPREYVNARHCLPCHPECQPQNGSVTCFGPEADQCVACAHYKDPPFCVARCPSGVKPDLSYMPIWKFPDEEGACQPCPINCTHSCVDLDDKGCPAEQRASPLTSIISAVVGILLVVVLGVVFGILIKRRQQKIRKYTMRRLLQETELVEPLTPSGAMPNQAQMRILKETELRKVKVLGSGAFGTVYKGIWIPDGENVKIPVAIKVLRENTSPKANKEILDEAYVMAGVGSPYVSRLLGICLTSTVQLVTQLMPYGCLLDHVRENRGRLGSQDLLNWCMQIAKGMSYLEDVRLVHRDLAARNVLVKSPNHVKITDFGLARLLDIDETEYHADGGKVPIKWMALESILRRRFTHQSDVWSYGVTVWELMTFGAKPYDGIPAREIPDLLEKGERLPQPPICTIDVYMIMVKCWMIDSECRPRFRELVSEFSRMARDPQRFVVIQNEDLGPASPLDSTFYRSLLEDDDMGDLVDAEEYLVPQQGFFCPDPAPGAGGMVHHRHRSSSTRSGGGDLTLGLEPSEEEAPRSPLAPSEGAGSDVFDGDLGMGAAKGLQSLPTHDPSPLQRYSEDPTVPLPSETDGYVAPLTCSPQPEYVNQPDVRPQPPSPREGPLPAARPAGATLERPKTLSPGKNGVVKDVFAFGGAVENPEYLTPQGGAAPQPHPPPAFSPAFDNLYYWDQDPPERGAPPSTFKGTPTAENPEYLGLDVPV
Assay [6] has as its target Mitogen-activated protein kinase kinase kinase 11 (Homo sapiens) (UniProt Q16584). Briefly: Selectivity interaction (KinomeScan (DiscoverX)) EUB0000045b MAP3K11.
Assay [7] concerns the target T3, Serine/threonine-protein kinase ULK1 (Homo sapiens) (UniProt O75385).
T3 sequence (whole entry): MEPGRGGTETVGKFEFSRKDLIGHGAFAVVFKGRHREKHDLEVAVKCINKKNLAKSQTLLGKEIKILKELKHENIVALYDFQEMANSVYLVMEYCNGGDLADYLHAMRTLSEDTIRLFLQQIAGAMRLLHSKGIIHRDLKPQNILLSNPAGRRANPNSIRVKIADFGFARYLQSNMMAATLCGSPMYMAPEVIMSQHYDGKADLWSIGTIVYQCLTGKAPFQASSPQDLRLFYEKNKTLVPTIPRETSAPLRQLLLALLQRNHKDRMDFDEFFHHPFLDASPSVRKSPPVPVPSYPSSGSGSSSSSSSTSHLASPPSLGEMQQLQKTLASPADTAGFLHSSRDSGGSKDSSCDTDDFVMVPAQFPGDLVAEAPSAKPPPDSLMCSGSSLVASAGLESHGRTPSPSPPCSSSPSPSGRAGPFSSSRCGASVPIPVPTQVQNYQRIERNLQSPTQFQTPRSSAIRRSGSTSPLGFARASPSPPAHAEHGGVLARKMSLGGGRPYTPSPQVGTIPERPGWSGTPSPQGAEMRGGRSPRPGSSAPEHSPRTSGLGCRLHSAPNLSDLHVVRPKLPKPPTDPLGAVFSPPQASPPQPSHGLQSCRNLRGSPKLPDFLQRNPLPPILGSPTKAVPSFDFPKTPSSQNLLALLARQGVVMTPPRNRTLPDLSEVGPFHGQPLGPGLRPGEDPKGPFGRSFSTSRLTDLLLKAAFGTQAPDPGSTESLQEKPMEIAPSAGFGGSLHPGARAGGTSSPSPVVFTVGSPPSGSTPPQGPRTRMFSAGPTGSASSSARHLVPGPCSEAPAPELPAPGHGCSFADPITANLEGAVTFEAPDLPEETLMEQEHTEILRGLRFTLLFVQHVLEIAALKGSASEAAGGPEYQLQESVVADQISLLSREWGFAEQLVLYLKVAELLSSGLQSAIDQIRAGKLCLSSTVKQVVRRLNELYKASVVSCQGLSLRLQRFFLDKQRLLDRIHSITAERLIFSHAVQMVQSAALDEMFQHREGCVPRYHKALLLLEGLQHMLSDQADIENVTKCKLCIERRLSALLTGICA
Briefly: Selectivity interaction (KinomeScan (DiscoverX)) EUB0000666a ULK1. The conditions noted are these: at 10 µM.

For the next assay, the target named is Activated CDC42 kinase 1 (Homo sapiens, UniProt Q07912).
Assay [8] concerns the target Epidermal growth factor receptor (Homo sapiens, UniProt P00533). As to conditions: at 10 µM.
For assay [9], the target named is Serine/threonine-protein kinase MRCK beta (Homo sapiens) (UniProt Q9Y5S2). The conditions noted are these: at 10 µM.
Serine/threonine-protein kinase MRCK beta (Homo sapiens), sequence (Q9Y5S2 whole entry): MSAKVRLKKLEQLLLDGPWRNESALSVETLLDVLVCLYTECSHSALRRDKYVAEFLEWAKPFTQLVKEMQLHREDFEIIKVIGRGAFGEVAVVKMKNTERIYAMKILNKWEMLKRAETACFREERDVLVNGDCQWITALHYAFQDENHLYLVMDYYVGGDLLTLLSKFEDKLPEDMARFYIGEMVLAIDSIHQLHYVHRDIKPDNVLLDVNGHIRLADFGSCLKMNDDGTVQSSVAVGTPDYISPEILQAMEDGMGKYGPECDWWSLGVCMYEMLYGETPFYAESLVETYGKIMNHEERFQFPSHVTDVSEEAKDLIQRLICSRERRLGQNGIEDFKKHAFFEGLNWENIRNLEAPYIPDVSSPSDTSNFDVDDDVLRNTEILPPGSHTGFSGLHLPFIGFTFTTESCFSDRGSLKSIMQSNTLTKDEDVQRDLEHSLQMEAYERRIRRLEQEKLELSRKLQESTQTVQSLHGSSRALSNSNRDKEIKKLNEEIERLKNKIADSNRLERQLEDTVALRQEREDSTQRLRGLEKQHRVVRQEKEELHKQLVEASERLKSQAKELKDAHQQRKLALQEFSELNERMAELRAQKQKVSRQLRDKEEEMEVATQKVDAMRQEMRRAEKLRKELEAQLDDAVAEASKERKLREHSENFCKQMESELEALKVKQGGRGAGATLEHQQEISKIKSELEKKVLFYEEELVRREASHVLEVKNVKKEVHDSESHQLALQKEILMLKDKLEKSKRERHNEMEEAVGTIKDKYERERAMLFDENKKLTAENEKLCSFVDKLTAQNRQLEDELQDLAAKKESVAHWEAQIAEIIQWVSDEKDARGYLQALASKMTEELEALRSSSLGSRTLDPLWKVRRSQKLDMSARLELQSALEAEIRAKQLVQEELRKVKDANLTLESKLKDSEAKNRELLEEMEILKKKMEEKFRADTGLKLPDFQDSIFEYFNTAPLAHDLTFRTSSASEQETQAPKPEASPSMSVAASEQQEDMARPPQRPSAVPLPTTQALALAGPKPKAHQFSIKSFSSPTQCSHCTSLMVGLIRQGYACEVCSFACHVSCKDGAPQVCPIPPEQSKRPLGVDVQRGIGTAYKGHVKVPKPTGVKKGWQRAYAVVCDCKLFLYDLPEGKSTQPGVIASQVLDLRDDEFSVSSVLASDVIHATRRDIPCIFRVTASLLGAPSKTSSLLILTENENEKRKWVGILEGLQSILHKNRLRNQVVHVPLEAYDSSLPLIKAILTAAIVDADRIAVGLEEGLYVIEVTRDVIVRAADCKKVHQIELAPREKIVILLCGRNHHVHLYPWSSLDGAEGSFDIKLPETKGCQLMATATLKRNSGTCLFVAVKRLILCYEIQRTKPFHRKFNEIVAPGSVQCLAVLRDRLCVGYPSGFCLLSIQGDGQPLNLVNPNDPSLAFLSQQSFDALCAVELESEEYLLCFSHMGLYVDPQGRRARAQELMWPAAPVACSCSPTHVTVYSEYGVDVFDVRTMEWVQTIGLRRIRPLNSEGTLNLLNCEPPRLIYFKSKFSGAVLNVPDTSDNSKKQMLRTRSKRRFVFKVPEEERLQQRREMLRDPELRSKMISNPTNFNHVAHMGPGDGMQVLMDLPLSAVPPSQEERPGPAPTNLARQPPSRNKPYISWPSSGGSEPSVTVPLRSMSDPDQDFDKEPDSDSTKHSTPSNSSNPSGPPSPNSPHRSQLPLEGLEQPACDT
Assay [10] concerns the target Mitogen-activated protein kinase kinase kinase 9 (Homo sapiens) (UniProt P80192). Briefly: Selectivity interaction (KinomeScan (DiscoverX)) EUB0000618a MAP3K9. The conditions noted are these: at 10 µM.

Mitogen-activated protein kinase kinase kinase 11 (Homo sapiens), sequence (Q16584 whole entry, looked up): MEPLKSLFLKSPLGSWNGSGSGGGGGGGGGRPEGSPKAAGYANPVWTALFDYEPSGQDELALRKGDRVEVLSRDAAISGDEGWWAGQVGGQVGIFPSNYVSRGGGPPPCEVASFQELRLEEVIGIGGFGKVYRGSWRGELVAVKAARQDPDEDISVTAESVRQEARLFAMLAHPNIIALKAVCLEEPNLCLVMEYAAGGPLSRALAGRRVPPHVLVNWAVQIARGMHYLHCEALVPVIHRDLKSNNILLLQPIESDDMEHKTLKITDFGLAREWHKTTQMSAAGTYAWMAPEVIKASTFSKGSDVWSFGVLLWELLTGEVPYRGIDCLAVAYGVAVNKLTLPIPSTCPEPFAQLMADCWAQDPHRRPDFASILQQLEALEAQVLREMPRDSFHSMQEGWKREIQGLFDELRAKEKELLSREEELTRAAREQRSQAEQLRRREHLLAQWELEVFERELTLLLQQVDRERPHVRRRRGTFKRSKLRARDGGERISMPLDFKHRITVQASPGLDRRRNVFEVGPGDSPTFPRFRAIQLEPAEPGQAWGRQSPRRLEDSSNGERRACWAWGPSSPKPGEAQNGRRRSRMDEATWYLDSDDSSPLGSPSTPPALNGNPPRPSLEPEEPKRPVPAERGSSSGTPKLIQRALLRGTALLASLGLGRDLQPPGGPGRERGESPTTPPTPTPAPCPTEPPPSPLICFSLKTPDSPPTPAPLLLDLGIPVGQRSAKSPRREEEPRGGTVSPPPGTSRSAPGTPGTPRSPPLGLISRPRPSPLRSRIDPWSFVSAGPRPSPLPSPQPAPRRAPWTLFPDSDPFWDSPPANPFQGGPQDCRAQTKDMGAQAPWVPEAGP

Take `Cc1ccc(-c2ccc3c(ccc4sc5c(c43)NC[C@@H](C)NC5=O)n2)cn1`: the % of inhibition in assay [1] amounted to 14%.
The compound `Nc1cnc(N2CCc3cc(S(=O)(=O)Nc4c(F)cc(Cl)cc4F)cc(N4CCCC4=O)c32)nc1` [TP-020n] registered a % of control in assay [2] of 79%.
`COc1cc(Nc2nc(C)cc(-c3cnn4nc(OC)ccc34)n2)cc(C(F)(F)F)c1`: the % of control was 77% in assay [3] and 100% in assay [4].
Consider `CN(C)CCOc1ccc(-c2nc(-c3ccncc3)c(-c3ccc4c(c3)CC/C4=N\O)[nH]2)cc1`, for which, in assay [5], the % of control was found to be 40%.
For `C=CC(=O)Nc1cc(-n2c(=O)ccc3cnc4ccc(-c5ccc(NS(C)(=O)=O)cc5)cc4c32)ccc1C`, the % of control in assay [6] (at 1 µM) was found to be 91%; in [6] (at 10 µM), 87%.
Compound `O=C(NOC[C@H](O)CO)c1ccc(F)c(F)c1Nc1ccc(I)cc1F` showed a % of control in assay [7] of 100%.
Consider `CCc1cccc(CC)c1NC(=O)c1nn(C)c2c1CCc1cnc(Nc3ccc(C(=O)NC4CCN(C)CC4)cc3OC(F)(F)F)nc1-2`, for which the negative logarithm of the IC50 (pIC50) against Activated CDC42 kinase 1 was < 5.00.
`COCC(=O)NC/C=C/c1ccc2ncnc(Nc3ccc(Oc4ccc(C)nc4)c(C)c3)c2c1` [CP-724714]: the % of control was 0.2% in assay [8] and 96% in [9].
`O[C@H]1CC[C@H](Nc2ncc3nc(Nc4c(F)cc(F)cc4F)n([C@H]4CCOC4)c3n2)CC1` showed a % of control in assay [10] of 100%.
